Where two headings read alike, the source gives them in different places.
Columns and labels:
[1] = Pilot pharmacokinetic study in mice; assay type: in vivo, mouse; conditions: for AUC(0-t): read-out: AUC0-24
Protocol: To establish a standard assay for RC16 detection and the half-life of RC16 in murine blood, a basic pilot pharmacokinetic study was performed using 1 animal per timepoint. Non-tumor bearing, female, athymic nude mice were treated with RC16 by i.v. or p.o.at doses of 1 mg/kg and 2 mg/kg, respectively. At 2, 4, 6, 12, 24 and 48 h post RC16 administration, a single mouse was anesthetized in an induction chamber with 5.0% isoflurane and an O2 flow rate of 0.8 L/min. Each mouse was transferred to a nose cone supplying 5.0% isoflurane with a O2 flow rate of 0.8 L/min. After confirming sedation by testing hind footpads, each mouse was subjected to exsanguination by cardiac puncture. Blood samples were collected in BD Microtainers (BD, Franklin Lakes, NJ). Plasma was separated by centrifugation at 2000×g for 10 min at 4°C and stored at −80°C until analysis. The RC16 concentration in plasma was determined by liquid LC-MS/MS.
Chromatographic separation was achieved using a Thermo Scientific Accela UHPLC system with HTS PAL autosampler and an Agilent ZORBAX Extend C18 column (50 × 2.1 mm I.D, 3.5 μm particle size) with a C18 guard cartridge maintained at 35°C. A 6.0 min linear gradient program with water/0.3% formic acid as mobile phase A and acetonitrile/0.3% formic acid as mobile phase B at a constant flow rate of 400 μL/min was applied for elution: 0.0 min 25% B, 1.0 min 25% B, 3.0 min 95% B, 4.5 min 95% B, 4.6 min 25% B and 6.0 min 25% B. The autosampler sample draw was set to 4°C, and a divert valve was used (0.0–2.0 min) to prevent early eluting compounds from entering the MS. Selective reaction monitoring with unit resolution was used for MS detection under positive mode. Transition channels from the protonated molecular ion to selected product ion were 377.33 > 153.15 for RC16 and 251.20 > 153.15 for internal standard RC7, respectively. Parameters optimized with a direct infusion of analyte and IS using a syringe pump were as follows: spray voltage, 5000 V; sheath gas and auxiliary gas, 25 and 15 (arbitrary unit), respectively; capillary temperature, 325°C; collision gas pressure, 1.5mTorr and skimmer offset, 10 eV. Tube lens offset was 100 eV for both RC16 and RC7, respectively. Scan time was 0.03 s. Collision energies were 40 eV for RC16 and 33 eV for RC7. Thermo Scientific LCQuan software was employed for system control and data processing.

[2] = system: Human Foreskin Keratinocytes (differentiated); assay: MTT cell proliferation assay, normal keratinocytes; assay type: cell-based; conditions: Keratinocyte, normal cells, read-out: Cell killing activity IC50
Protocol: (§1) Cells were plated in 96-well tissue culture plates at a density of 1 × 10^3 cells/well, allowed to attach 24 h, and then left untreated or treated with growth medium containing different concentrations of the tested RCn compounds previously dissolved in PBS. After different time periods the cell vitality was determined by MTT assay according to the manufacture’s instruction (Promega). Results are reported as the micromolar concentration of RCn reducing cell survival to 50% (IC50).

[3] = system: SK-N-AS; assay: MTT cell proliferation assay, SK-N-AS; assay type: cell-based; conditions: Homo sapiens, Neuroblastoma, read-out: Cell killing activity IC50
Protocol: as §1

[4] = system: nude mice bearing CHLA-20 tumors; assay: Biodistribution study (IVIS imaging); assay type: in vivo, mouse; conditions: RC16 labelled with Cell-Vue Maroon
Protocol: A pilot biodistribution study using one animal per timepoint was performed to minimize the number of experimental animals. Female athymic nude mice were subcutaneously implanted with 5.0 × 10^6 CHLA-20 cells. When tumors became palpable (approximately 5 mm in diameter), mice were treated with i.v. injections of RC16 labelled with Cell-Vue Maroon (dye:RC16, 1:100 mol:mole) at a dose of 1 mg/kg. […] The mice were then humanely euthanized by CO2 asphyxiation. Organs were removed, weighed and used for quantitative optical imaging by the IVIS system.

[5] = system: SH-SY5Y cells; assay: Caspase activation (western blot, fluorimetric assay); assay type: cell-based
Protocol: Cells with or without RCn treatment were washed with PBS and lysed on ice for 30 min in lysis buffer containing protease and phosphatase inhibitors. Protein concentrations were determined with the Bio-Rad protein assay kit. 50 μg of total protein was separated on 12% SDS-PAGE at 100 V for 1 h and then transferred onto a nitrocellulose membrane using a wet blotting apparatus (Bio-Rad Laboratories) at 20 V overnight. Proteins were detected by enhanced chemiluminescence detection reagents (Amersham Biosciences). The antibodies used for immunoblotting were: caspases 3, 8, 9, and PARP were diluted 1:100 in blocking reagent (Cell Signaling Technology). The exposure time was the same for all the antibodies. Blots were stripped and reprobed with anti-β-tubulin diluted 1:10,000 in blocking reagent (Santacruz Biotechnology) used as the loading control.
Detection of caspase activity was evaluated by ApoFluor Green Apoptosis Detection kits specific for: caspase-1 and caspase-4; caspase-2, caspase-3 and caspase-7; caspase-6, caspase-8, caspase-9, caspase-10, and caspase-13 (MP Biochemicals), according to the manufacturer’s instructions. […] After 1 h incubation samples were washed and analyzed by flow cytometry (FACScan, Becton Dickinson) equipped with a 15-mW argon ion laser at 488 nm ([16]).

[6] = Maximum tolerated dose in mice; conditions: female, mouse, in vivo; single intravenous injection, non-tumor bearing athymic nude mice
Protocol: To determine the MTD, a standard assay dose escalation study was performed. Non-tumor bearing, female, athymic nude mice were injected once with RC16 by the tail vein starting with 0.5 mg/kg. The doses were escalated by 0.25 mg/kg until MTD was achieved. Following convention, each dose was tested on a cohort of 5 mice in individual independent experiments. MTD was defined as the highest dose that could be given resulting in no drug-related moribund state or death or body weight loss ≥ 20% in the first 7 days. Other signs of toxicity such as unusual mouse behavior, lack of movement and poor posture were also monitored. Mice were weighed and observed 3 times per week for any signs of toxicity.

[7] = system: MDA-MB-231; assay: MTT cell proliferation assay, MDA-MB-231; assay type: cell-based; conditions: Homo sapiens, MDA-MB-231, adult tumor cell line, read-out: Cell killing activity IC50
Protocol: as §1

Q: Which results are given for CCCCCCCCCCCCCCC1CN2CCCN3CCCCCC132 (centres unmarked) [RC16, 2-tetradecyl-4,8-diazatricyclo[6.5.0.0^1,^4]tridecane]?
A: half-life ([1]; female, athymic nude, mouse, plasma, iv, 1 mg/kg i.v., nude mice, read-out: Half-life (converted)): 5.4 h; bioavailability ([1]; female, athymic nude, mouse, plasma, po, 2 mg/kg, estimated from pilot pharmacokinetic data): ~6%; Cmax ([1]; female, athymic nude, mouse, plasma, 2 mg/kg oral, at 4 h, nude mice, read-out: Maximum observed plasma concentration (Cmax)): 12.5 ng/mL; half-life ([1]; female, athymic nude, mouse, plasma, 2 mg/kg oral, non-compartmental analysis, nude mice, read-out: Apparent half-life (converted)): 5.2 h; AUC(0-t) ([1]; female, athymic nude, mouse, plasma, IV, 1 mg/kg, nude mice): 1390 ng·h/mL; Cmax ([1]; female, athymic nude, mouse, plasma, IV, 1 mg/kg, nude mice, read-out: Cmax): 153 ng/mL; AUC(0-t) ([1]; female, athymic nude, mouse, plasma, PO, 2 mg/kg, nude mice): 160 ng·h/mL; concentration at 2 h ([1]; female, athymic nude, plasma, intravenous, 1 mg/kg i.v., 2 h, nude mice, 1 mouse per time point): 153 ng/mL; concentration at 24 h ([1]; female, athymic nude, plasma, intravenous, 1 mg/kg i.v., nude mice, 1 mouse per time point): 11.4 ng/mL; concentration at 24 h ([1]; female, athymic nude, plasma, 2 mg/kg oral, nude mice, 1 mouse per time point): 0.5 ng/mL; concentration at 48 h ([1]; female, athymic nude, plasma, 2 mg/kg oral, 48 h, nude mice, 1 mouse per time point): 4.6 ng/mL; Achieved plasma concentrations ([1]; i.v. dose of 1 mg/kg): 150 to 200 ng/mL; IC50 ([2]; 24 h): 15200 nM; IC50 ([2]; 48 h): 13500 nM; IC50 ([3]; 24 h): 880 nM; IC50 ([3]; 48 h): 670 nM; Organ fluorescence intensity (biodistribution) ([4]; 1 mg/kg i.v., 12, 24 and 48 h): stomach, intestine and liver showed the highest fluorescence intensity; RC16 level in tumors over time ([4]; 1 mg/kg i.v., CHLA-20 tumors): remained constant over time; Caspase activation, fluorimetric assay (caspases 1, 2, 3, 6, 8, 9, 10, 13) ([5]; 5 μM RC16, 1-24 h): all the above caspases were activated already at 4 h; Caspase activation, western blot ([5]; 5 μM RC16, 2-36 h): activation of caspases 3, 8 and 9; MTD at 7 days [6]: 4 mg/kg; IC50 ([7]; 24 h): 2960 nM; IC50 ([7]; 48 h): 1670 nM
